Tested on: artificial genetic circuit pGESS-EGFP (I) (dmpR)
Assay: signals of artificial genetic circuit for various phenols, FACS fluorescence
Format: cell-based, E. coli DH5α
Settings: 100 uM of each phenol derivative, 30° C. 18 hours
Source text: Whether the artificial genetic circuit senses the following phenol derivatives and the sensitivities of the genetic circuit to the phenol derivatives were examined: o-nitrophenol, m-nitrophenol, p-nitrophenol, o-chlorophenol, m-chlorophenol, p-chlorophenol, salicylic acid, 2-aminophenol, 2-methoxyphenol, o-cresol, m-cresol, p-cresol, catechol, resorcinol, 2-fluorophenol, 2-iodophenol, 2,4-dimethylphenol, 2,5-dimethylphenol, 3,4-dimethylphenol, 2,3-dimethylphenol, 3,5-dimethylphenol, 2,4-dichlorophenol, 2,5-dichlorophenol, 2,3-dichlorophenol, 2,6-dichlorophenol, 3,4-dichlorophenol, 3,5-dichlorophenol, 2,4-dinitrophenol, 3-methylcatechol, 2-ethylphenol, 3-ethylphenol, and benzene. Specifically, a single colony of E. coli DH5α containing pGESS-EGFP (I) was inoculated into LB liquid medium containing 50 μg/ml of ampicillin and was cultured overnight at 37° C. The culture was inoculated into LB medium containing 50 μg/ml of ampicillin to a concentration of 1% (v/v) and was cultured at 37° C. for about 8 hours until the OD600 of the cells reached 3. Then, 100 uM of each of the phenol derivatives was added to the culture which was then cultured with shaking at 30° C. for 18 hours. 100 μl of each culture was extracted, and the distribution of fluorescence in individual cells was examined by FACS. Each of the samples was tested three times, and the measurements were averaged.

Compound | response of the artificial genetic circuit (fluorescence, FACS)
Oc1cccc(Cl)c1Cl [2,3-dichlorophenol] | weakly responded
Cc1cccc(O)c1C [2,3-dimethylphenol] | weakly responded
Oc1cc(Cl)ccc1Cl [2,5-dichlorophenol] | weakly responded
Cc1ccc(C)c(O)c1 [2,5-dimethylphenol] | weakly responded
Nc1ccccc1O [2-aminophenol] | strongly responded
CCc1ccccc1O [2-ethylphenol] | strongly responded
Oc1ccccc1F [2-fluorophenol] | strongly responded
Oc1ccccc1I [2-iodophenol] | strongly responded
COc1ccccc1O [2-methoxyphenol] | strongly responded
Oc1ccccc1O [catechol] | strongly responded
Oc1cccc(Cl)c1 [m-chlorophenol] | weakly responded
Cc1cccc(O)c1 [m-cresol] | strongly responded
O=[N+]([O-])c1cccc(O)c1 [m-nitrophenol] | weakly responded
Oc1ccccc1Cl [o-chlorophenol] | strongly responded
Cc1ccccc1O [o-cresol] | strongly responded
O=[N+]([O-])c1ccccc1O [o-nitrophenol] | strongly responded
Oc1ccc(Cl)cc1 [p-chlorophenol] | weakly responded
Cc1ccc(O)cc1 [p-cresol] | weakly responded
O=[N+]([O-])c1ccc(O)cc1 [p-nitrophenol] | did not respond

Tested on: artificial genetic circuit pGESS-Cm (II)
Assay: response of chloramphenicol resistance reporter circuit to phenol derivatives, OD600
Format: cell-based, E. coli EPI300
Settings: 100 μM of each phenol derivative, 30 μg/ml chloramphenicol, 37° C. 8 hours
Method: In the case of the artificial genetic circuit comprising chloramphenicol resistance gene as the reporter, whether the genetic circuit responds to the substrates was examined. […] The culture was inoculated into 50 μg/ml ampicillin-containing LB liquid medium to a concentration of 1% (v/v), and then 30 μg/ml of chloramphenicol and 100 μM of each of the phenol derivatives were added thereto and the cells were cultured with shaking at 37° C. for 8 hours. Then, the OD600 of the cells was measured, thereby examining whether the genetic circuit responded to the phenol derivatives. As a control group, cells containing 100 μM of phenol without containing chloramphenicol were used.

Compound | response of the artificial genetic circuit (chloramphenicol resistance, OD600)
Cc1cccc(O)c1C [2,3-dimethylphenol] | strongly responded
CCc1ccccc1O [2-ethylphenol] | strongly responded
Oc1ccccc1F [2-fluorophenol] | strongly responded
Oc1ccccc1I [2-iodophenol] | strongly responded
COc1ccccc1O [2-methoxyphenol] | strongly responded
Oc1ccccc1O [catechol] | strongly responded
Oc1cccc(Cl)c1 [m-chlorophenol] | strongly responded
Cc1cccc(O)c1 [m-cresol] | strongly responded
O=[N+]([O-])c1cccc(O)c1 [m-nitrophenol] | strongly responded
Oc1ccccc1Cl [o-chlorophenol] | strongly responded
Cc1ccccc1O [o-cresol] | strongly responded
O=[N+]([O-])c1ccccc1O [o-nitrophenol] | strongly responded
Oc1ccc(Cl)cc1 [p-chlorophenol] | weakly responded to or did not respond
Cc1ccc(O)cc1 [p-cresol] | weakly responded to or did not respond
O=[N+]([O-])c1ccc(O)cc1 [p-nitrophenol] | weakly responded to or did not respond

Tested on: artificial genetic circuit pGESS-EGFP (I) (dmpR)
Assay: not given
Format: cell-based, E. coli DH5α
Settings: 0.1-1000 μM tested, overnight at 30° C., LB medium
Method: The signals of the artificial genetic circuit for phenolic compounds were quantitatively analyzed. Specifically, a single colony of E. coli DH5α containing pGESS-EGFP (I) was inoculated into LB liquid medium containing 50 μg/ml of ampicillin and was cultured with shaking overnight at 37° C. The culture was inoculated into LB medium containing 50 μg/ml of ampicillin to a concentration of 1% (v/v), and 0.1-1000 μM of each of phenol, o-chlorophenol, m-chlorophenol, o-nitrophenol, catechol and resorcinol was added thereto and cultured with shaking overnight at 30° C. The cells were lysed, and the supernatant was analyzed by a fluorescence spectrometer (Varian, Australia), thereby measuring the fluorescence of GFP at 510 nm.

Compound | concentration from which fluorescence started to be sensed [µM]
Oc1ccccc1O [catechol] | 10
Oc1cccc(Cl)c1 [m-chlorophenol] | 1
Oc1ccccc1Cl [o-chlorophenol] | ≤ 0.1
O=[N+]([O-])c1ccccc1O [o-nitrophenol] | 10
Oc1cccc(O)c1 [resorcinol] | 100

Reference: patent publication US9783859B2, “Method of screening and quantifying various enzymatic activities using artificial genetic circuits” (KOREA RESEARCH INSTITUTE OF BIOSCIENCE AND BIOTECHNOLOGY, priority 2009, dated 2017)
